Patent publication US6291231A, “Microorganism producing terphenyl compounds” (Shionogi & Co., Ltd., priority 1996, dated 2001)
Values after ≈ are worked out from the molar mass of the structure shown.

Experiments:
BDF1 mouse splenocytes [1] = assay: Suppression of the lipopolysaccharide (LPS) reaction of mouse splenocytes, 3H-thymidine uptake; type: cell-based; details: for Radioactivity cpm ± SD / inhibition at 0.00098 µg/mL / inhibition at 0.00391 µg/mL / inhibition at 0.0156 µg/mL / inhibition at 0.0625 µg/mL / inhibition at 0.25 µg/mL: LPS 10 μg/ml; for Radioactivity cpm ± SD: 3H-thymidine; for inhibition at 0.00098 µg/mL / inhibition at 0.00391 µg/mL / inhibition at 0.0156 µg/mL / inhibition at 0.0625 µg/mL / inhibition at 0.25 µg/mL: Mus musculus, 48 h; for inhibition at 0.00098 µg/mL / inhibition at 0.00391 µg/mL / inhibition at 0.0156 µg/mL / inhibition at 0.0625 µg/mL / inhibition at 0.25 µg/mL / IC50: Splenocyte; for IC50: LPS reaction of mouse splenocytes; for Suppressive effect on the LPS reaction of mouse splenocytes (in words): depends on the compound concentration
Method: To each well of a 96 well microtiter plate were added 5×10^5 BDF1 mouse splenocytes suspended in 0.1 ml of 10% fetal calf serum-fortifed RPMI 1640 medium (2 mM of sodium bicarbonate, 50 units/ml of penicillin, 50 μg/ml of streptomycin and 5×10^-5 M of 2-mercaptethanol were added) were added. To each well, 5 μg/ml of Con A as a mitogen and the compound (I-1), (I-2) or (I-3) of a pre-determined concentration were added so that a final volume of each well reached 0.2 ml. […] The splenocytes in the 96 well microtiter plate were cultivated at 37° C. for 48 hours in an incubator keeping the humidity 100%, carbon dioxide 5% and air 95%. The cells were pulse-labeledwith 3H-thymidine (18.5 Kbq/well) before 6 hours of harvest. After the cultivation, the cells were collected by a cell harvester and radioactivity taken in the cells was measured for being used as an indicator of a cell proliferation activity. Con A-free (--Con A) medium was used as a control.
By the same method as described in above 1-1 except that lipopolysaccharide (LPS, 10 μg/ml) was used in spite of concanavalin A, a suppression of the reaction was examined. LPS-free (--LPS) medium was used as a control.

BDF1 mouse splenocytes [2] = assay: Suppression of the concanavalin A (Con A) mitogen reaction of mouse splenocytes, 3H-thymidine uptake; type: cell-based; details: for Radioactivity cpm ± SD / inhibition at 0.00025 µg/mL / inhibition at 0.00098 µg/mL / inhibition at 0.00391 µg/mL / inhibition at 0.0156 µg/mL / inhibition at 0.0625 µg/mL: Con A 5 μg/ml, 48 h; for Radioactivity cpm ± SD: 3H-thymidine; for inhibition at 0.00025 µg/mL / inhibition at 0.00098 µg/mL / inhibition at 0.00391 µg/mL / inhibition at 0.0156 µg/mL / inhibition at 0.0625 µg/mL: Mus musculus; for inhibition at 0.00025 µg/mL / inhibition at 0.00098 µg/mL / inhibition at 0.00391 µg/mL / inhibition at 0.0156 µg/mL / inhibition at 0.0625 µg/mL / IC50: Splenocyte; for IC50: Con A reaction of mouse splenocytes; for Suppression of the Con A reaction of mouse splenocytes (in words): depending on the compound concentration
Method: To each well of a 96 well microtiter plate were added 5×10^5 BDF1 mouse splenocytes suspended in 0.1 ml of 10% fetal calf serum-fortifed RPMI 1640 medium (2 mM of sodium bicarbonate, 50 units/ml of penicillin, 50 μg/ml of streptomycin and 5×10^-5 M of 2-mercaptethanol were added) were added. To each well, 5 μg/ml of Con A as a mitogen and the compound (I-1), (I-2) or (I-3) of a pre-determined concentration were added so that a final volume of each well reached 0.2 ml. Each compound of the present invention was dissolved in dimethylsulfoxide (DMSO) and diluted with the above RPMI 1640 medium to adjust the final concentration to 100 ng/ml or less. The splenocytes in the 96 well microtiter plate were cultivated at 37° C. for 48 hours in an incubator keeping the humidity 100%, carbon dioxide 5% and air 95%. The cells were pulse-labeledwith 3H-thymidine (18.5 Kbq/well) before 6 hours of harvest. After the cultivation, the cells were collected by a cell harvester and radioactivity taken in the cells was measured for being used as an indicator of a cell proliferation activity. Con A-free (--Con A) medium was used as a control.

[3] = Solubility (characterisation data); type: physicochemical
BDF1 mouse splenocytes [4] = assay: Suppression of the concanavalin A (Con A) mitogen reaction of mouse splenocytes, 3H-thymidine uptake; type: cell-based; parameters: Radioactivity cpm ± SD: dose or concentration left out as unconfirmed; details: for inhibition at 0.25 µg/mL: Mus musculus, Splenocyte, 48 h, Con A 5 μg/ml, compound 250.0 ng/ml
P388 mouse leukemia cell = assay: Cell proliferation inhibition (MTT), P388; type: cell-based
Method: (§1) To each well of a 96 well microtiter plate, the pre-determined number of various cell strains (0.1 ml) were added and pre-cultivated for a day under the same cultivation conditions as Experiment 1. To each well, 0.1 ml of the compound (I-1) was added so that the concentration was in the range of 0-10,000 ng/ml. After the cultivation for 3-4 days, 25 μl of 6 mg/ml MTT [3-(4,5-dimethylthiazol-2-yl)-2,5-diphenyltetrazolium bromide] (Sigma) solution was added to each well and the cells were cultivated at 37° C. for 4 hours under the same conditions as above. After the cultivation, 50 μl of 0.02 N hydrochloric acid solution of 20% sodium dodecyl sulfate was added to formazan generated and left at 37° C. for 24 hours for dissolving formazan. An absorption intensity (OD) of formazan generated in proportion to the number of living cells was measured with an immunoreader (InterMed) equipped with a 570 nm filter (The Journal of Immunological Method, No.65, p.55-63, 1983). The 50% inhibitory concentration of a cell proliferation (IC 50) was calculated from a correlation between a concentration of the compound (I-1) and absorption intensity.

[5] = system: Lu-99 human large cell lung cancer; assay: Cell proliferation inhibition (MTT), Lu-99; type: cell-based
Method: as §1

[6] = system: CCD-19Lu human normal pneumocyte; assay: Cell proliferation inhibition (MTT), CCD-19Lu; type: cell-based
Method: as §1

[7] = system: CCFR-CEM human leukemia cell; assay: Cell proliferation inhibition (MTT), CCFR-CEM; type: cell-based
Method: as §1

Row | IC50 (BDF1 mouse splenocytes [1]) [ng/mL] | SMILES | Radioactivity cpm ± SD (BDF1 mouse splenocytes [1]; compound 0.98 ng/ml) [cpm] | Radioactivity cpm ± SD (BDF1 mouse splenocytes [1]; compound 3.91 ng/ml) [cpm] | Radioactivity cpm ± SD (BDF1 mouse splenocytes [1]; compound 15.6 ng/ml) [cpm] | Radioactivity cpm ± SD (BDF1 mouse splenocytes [1]; compound 62.5 ng/ml) [cpm] | Radioactivity cpm ± SD (BDF1 mouse splenocytes [1]; compound 250.0 ng/ml) [cpm] | inhibition at 0.00098 µg/mL (BDF1 mouse splenocytes [1]; compound 0.98 ng/ml) [%] | inhibition at 0.00391 µg/mL (BDF1 mouse splenocytes [1]; compound 3.91 ng/ml) [%] | inhibition at 0.0156 µg/mL (BDF1 mouse splenocytes [1]; compound 15.6 ng/ml) [%] | inhibition at 0.0625 µg/mL (BDF1 mouse splenocytes [1]; compound 62.5 ng/ml) [%] | inhibition at 0.25 µg/mL (BDF1 mouse splenocytes [1]; compound 250.0 ng/ml) [%] | Suppressive effect on the LPS reaction of mouse splenocytes (in words) (BDF1 mouse splenocytes [1]) | Radioactivity cpm ± SD (BDF1 mouse splenocytes [2]; compound 0.25 ng/ml) [cpm] | Radioactivity cpm ± SD (BDF1 mouse splenocytes [2]; compound 0.98 ng/ml) [cpm] | Radioactivity cpm ± SD (BDF1 mouse splenocytes [2]; compound 3.91 ng/ml) [cpm] | Radioactivity cpm ± SD (BDF1 mouse splenocytes [2]; compound 15.6 ng/ml) [cpm] | Radioactivity cpm ± SD (BDF1 mouse splenocytes [2]; compound 62.5 ng/ml) [cpm] | inhibition at 0.00025 µg/mL (BDF1 mouse splenocytes [2]; compound 0.25 ng/ml) [%] | inhibition at 0.00098 µg/mL (BDF1 mouse splenocytes [2]; compound 0.98 ng/ml) [%] | inhibition at 0.00391 µg/mL (BDF1 mouse splenocytes [2]; compound 3.91 ng/ml) [%] | other results
1 | 8 (≈ 0.0183 µM) | COc1cc(-c2c(OC)cc(-c3ccc(O)cc3)c(OC)c2O)ccc1OCC=C(C)C [Compound I-3, 3,3',6'-trimethoxy-4-(3-methyl-2-butenyloxy)-[1,1';4',1"] terphenyl-2',4"-diol] | 184366 ± 10625 | 128436 ± 4167 | 46765 ± 2209 | 22961 ± 1187 | 14962 ± 866 | -20.2 | 16.8 | 71 | 86.7 | 92 | potent suppressive effect | 285408 ± 7252 | 266173 ± 6208 | 101504 ± 1326 | 20510 ± 287 | 7755 ± 624 | -3.1 | 4 | 64.2 | inhibition at 0.0156 µg/mL (BDF1 mouse splenocytes [2]; compound 15.6 ng/ml): 93.8%; inhibition at 0.0625 µg/mL (BDF1 mouse splenocytes [2]; compound 62.5 ng/ml): 98.4%; IC50 (BDF1 mouse splenocytes [2]): 2 ng/mL (≈ 0.00458 µM); Suppression of the Con A reaction of mouse splenocytes (in words) (BDF1 mouse splenocytes [2]): significantly suppressed; Solubility in acetone, ethyl acetate and chloroform [3]: soluble; Solubility in water [3]: insoluble; Radioactivity cpm ± SD (BDF1 mouse splenocytes [4]): 7522 ± 485 cpm; inhibition at 0.25 µg/mL (BDF1 mouse splenocytes [4]): 98.5%
2 | 15.6 (≈ 0.0384 µM) | COc1cc(-c2ccccc2)c(OC)c(O)c1-c1ccc(OCC=C(C)C)c(O)c1 [Compound I-2, 3',6'-dimethoxy-4-(3-methyl-2-butenyloxy)-[1,1';4',1"] terphenyl-3,2'-diol] | 208023 ± 8941 | 132834 ± 5106 | 78686 ± 4135 | 39824 ± 651 | 22312 ± 1122 | -35.9 | 13.9 | 49.8 | 75.6 | 87.2 | potent suppressive effect | 281904 ± 6522 | 281371 ± 10119 | 191575 ± 6969 | 41660 ± 531 | 11793 ± 235 | -1.8 | -1.6 | 30.9 | inhibition at 0.0156 µg/mL (BDF1 mouse splenocytes [2]; compound 15.6 ng/ml): 86%; inhibition at 0.0625 µg/mL (BDF1 mouse splenocytes [2]; compound 62.5 ng/ml): 96.9%; IC50 (BDF1 mouse splenocytes [2]): 5.6 ng/mL (≈ 0.0138 µM); Suppression of the Con A reaction of mouse splenocytes (in words) (BDF1 mouse splenocytes [2]): significantly suppressed; Solubility in acetone, ethyl acetate and chloroform [3]: soluble; Solubility in water [3]: insoluble; Radioactivity cpm ± SD (BDF1 mouse splenocytes [4]): 8233 ± 254 cpm; inhibition at 0.25 µg/mL (BDF1 mouse splenocytes [4]): 98.2%
3 | 4.5 (≈ 0.0107 µM) | COc1cc(-c2ccc(O)cc2)c(OC)c(O)c1-c1ccc(OCC=C(C)C)c(O)c1 [Compound I-1, 3',6'-dimethoxy-4-(3-methyl-2-butenyloxy) -[1,1':4',1"] terphenyl-3,2',4"-triol] | 153396 ± 6123 | 88405 ± 10394 | 32548 ± 315 | 16070 ± 944 | 15046 ± 344 | 0.3 | 43.4 | 80.4 | 91.3 | 92 | potent suppressive effect | 292470 ± 542 | 210046 ± 3288 | 56871 ± 1554 | 11366 ± 372 | 6411 ± 246 | -5.6 | 24.5 | 80.5 | IC50 (P388 mouse leukemia cell; Mus musculus, P388, RPMI 1640, 5 × 10^2 cells/well, MTT, 3-4 days, read-out: IC50 (ng/ml) of cell proliferation): 12 ng/mL (≈ 0.0284 µM); Antiproliferative activity (in words) (P388 mouse leukemia cell; tumor cells (P388)): has an antiproliferative activity on the tumor cells; IC50 ([5]; Homo sapiens, Lu-99, RPMI 1640, 2 × 10^3 cells/well, MTT, 3-4 days, read-out: IC50 (ng/ml) of cell proliferation): 1 ng/mL (≈ 0.00237 µM); Antiproliferative activity (in words) ([5]; tumor cells (Lu-99)): has an antiproliferative activity on the tumor cells; IC50 ([6]; Homo sapiens, CCD-19Lu, MEM, 2 × 10^4 cells/well, MTT, 3-4 days, read-out: IC50 (ng/ml) of cell proliferation): > 10000 ng/mL; Antiproliferative activity (in words) ([6]; normal pneumocyte CCD-19Lu): not on the normal pneumocyte CCD-19Lu; inhibition at 0.0156 µg/mL (BDF1 mouse splenocytes [2]; compound 15.6 ng/ml): 97.1%; inhibition at 0.0625 µg/mL (BDF1 mouse splenocytes [2]; compound 62.5 ng/ml): 98.9%; IC50 (BDF1 mouse splenocytes [2]): 1.2 ng/mL (≈ 0.00284 µM); Suppression of the Con A reaction of mouse splenocytes (in words) (BDF1 mouse splenocytes [2]): significantly suppressed; Solubility in acetone, ethyl acetate and chloroform [3]: soluble; Solubility in water [3]: insoluble; IC50 ([7]; Homo sapiens, CCFR-CEM, RPMI 1640, 5 × 10^3 cells/well, MTT, 3-4 days, read-out: IC50 (ng/ml) of cell proliferation): 0.2 ng/mL (≈ 0.000473 µM); Antiproliferative activity (in words) ([7]; tumor cells (CCFR-CEM)): has an antiproliferative activity on the tumor cells; Radioactivity cpm ± SD (BDF1 mouse splenocytes [4]): 6404 ± 403 cpm; inhibition at 0.25 µg/mL (BDF1 mouse splenocytes [4]): 98.9%
